Tests used:
Type in all cases: biochemical
[1] = target: T1, Recombinant human MAO-A (Homo sapiens, UniProt P21397); test: Inhibitory activity on MAO-A
T1 construct: purchased Sigma M7316
T1 sequence (P21397 1-527): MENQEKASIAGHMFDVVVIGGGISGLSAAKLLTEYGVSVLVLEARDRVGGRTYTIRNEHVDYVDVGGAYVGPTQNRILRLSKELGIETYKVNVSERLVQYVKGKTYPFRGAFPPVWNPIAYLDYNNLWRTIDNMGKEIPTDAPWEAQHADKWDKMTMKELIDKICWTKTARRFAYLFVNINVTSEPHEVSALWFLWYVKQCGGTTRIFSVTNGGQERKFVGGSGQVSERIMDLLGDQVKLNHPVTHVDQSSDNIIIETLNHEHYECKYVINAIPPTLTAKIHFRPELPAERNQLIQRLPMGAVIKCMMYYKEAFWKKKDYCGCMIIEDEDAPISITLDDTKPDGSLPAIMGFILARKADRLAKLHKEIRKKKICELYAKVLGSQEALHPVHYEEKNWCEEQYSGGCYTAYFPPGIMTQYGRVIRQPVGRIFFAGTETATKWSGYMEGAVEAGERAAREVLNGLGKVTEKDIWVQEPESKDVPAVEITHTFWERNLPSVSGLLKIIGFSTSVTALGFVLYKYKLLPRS
Protocol: (§1) Recombinant human MAO-A and MAO-B protein was purchased from Sigma (M7316, M7441). Other reagents are the same as Biological Test Example 1. The final concentration of test compound in 10 μL reaction system was 100 μM to 5 nM when MAO-A and MAO-B were detected. The final concentrations of MAO-A and MAO-B protein in 10 μL reaction system were 70 nM and 300 nM, respectively, while other reaction conditions were the same as those in Biological Test Example 1. Data analysis and IC50 calculation method were the same as those in Biological Test Example 1.

[2] = target: T2, Recombinant human MAO-B (Homo sapiens, UniProt P27338); test: Inhibitory activity on MAO-B
T2 construct: purchased Sigma M7441
T2 sequence (P27338 1-520): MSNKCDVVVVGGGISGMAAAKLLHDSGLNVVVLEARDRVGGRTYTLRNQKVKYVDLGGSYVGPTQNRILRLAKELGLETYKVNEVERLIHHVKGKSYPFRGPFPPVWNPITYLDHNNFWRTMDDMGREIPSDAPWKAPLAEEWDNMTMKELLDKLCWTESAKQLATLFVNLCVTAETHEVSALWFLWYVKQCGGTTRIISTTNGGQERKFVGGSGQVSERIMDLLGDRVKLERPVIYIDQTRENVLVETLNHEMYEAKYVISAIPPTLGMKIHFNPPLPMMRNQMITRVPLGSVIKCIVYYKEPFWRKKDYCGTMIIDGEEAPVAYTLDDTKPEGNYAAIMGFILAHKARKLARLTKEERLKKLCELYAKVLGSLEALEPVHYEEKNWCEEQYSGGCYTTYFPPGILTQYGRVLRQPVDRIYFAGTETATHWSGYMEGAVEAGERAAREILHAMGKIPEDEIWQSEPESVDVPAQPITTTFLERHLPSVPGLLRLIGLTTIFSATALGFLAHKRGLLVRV
Protocol: as §1

[3] = target: T3, Recombinant human SSAO protein (Homo sapiens, UniProt Q16853); test: In vitro inhibitory activity on SSAO/VAP-1 (MAO-Glo assay), human
T3 construct: Eli Lilly (provided, not a catalogue product)
T3 sequence (Q16853 1-763): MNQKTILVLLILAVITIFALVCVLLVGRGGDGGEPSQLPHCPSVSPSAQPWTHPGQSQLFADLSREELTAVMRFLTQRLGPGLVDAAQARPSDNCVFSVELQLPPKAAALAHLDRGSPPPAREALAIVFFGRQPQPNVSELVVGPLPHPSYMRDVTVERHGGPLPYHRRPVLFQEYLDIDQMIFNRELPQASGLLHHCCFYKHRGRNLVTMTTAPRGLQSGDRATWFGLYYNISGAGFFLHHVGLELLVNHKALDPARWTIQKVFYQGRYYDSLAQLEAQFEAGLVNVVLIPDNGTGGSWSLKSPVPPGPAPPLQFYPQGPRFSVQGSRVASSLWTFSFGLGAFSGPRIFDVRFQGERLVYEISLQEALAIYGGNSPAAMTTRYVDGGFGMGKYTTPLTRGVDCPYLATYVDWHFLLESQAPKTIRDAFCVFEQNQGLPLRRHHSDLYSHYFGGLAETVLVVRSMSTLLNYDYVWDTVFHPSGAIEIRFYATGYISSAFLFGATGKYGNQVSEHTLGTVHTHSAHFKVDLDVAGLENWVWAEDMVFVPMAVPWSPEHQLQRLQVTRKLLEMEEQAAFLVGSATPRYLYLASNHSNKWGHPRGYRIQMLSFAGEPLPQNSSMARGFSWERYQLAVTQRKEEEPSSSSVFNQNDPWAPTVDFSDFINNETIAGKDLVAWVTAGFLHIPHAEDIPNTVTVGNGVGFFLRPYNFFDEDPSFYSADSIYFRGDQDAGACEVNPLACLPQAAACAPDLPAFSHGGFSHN
Protocol: This assay was used to evaluate the in vitro inhibitory activity of the compounds on SSAO/VAP-1 of different species. Recombinant human SSAO protein, mouse SSAO protein or rat SSAO protein (provided by Eli Lilly) were used. The enzyme activity detection kit, MAO-Glo Assay kit (V1402) was purchased from Promega. Enzyme reaction buffer (50 mM HEPES, 120 mM NaCl, 5 mM KCl, 2 mM CaCl2, 1.4 mM MgCl2, 0.001% Tween-20, pH7.4) was prepared. The test compound was dissolved in DMSO and diluted by 3-fold concentration in gradient. The final concentration of test compound in a 10 μL reaction system was 1 μM to 0.05 nM when SSAO was detected. The content of DMSO in the detection reaction was 1%. After the solution of test compound in DMSO was diluted in the enzyme reaction buffer at a volume ratio of 1:25, 2.5 μL of which was added to each well of detection plate, two replicates for each concentration. 5 μL of SSAO protein diluted in the enzyme reaction buffer was added to each well, the final concentration of which was 10 nM to 80 nM in 10 μL reaction system. The mixture was incubated at room temperature for 10 minutes. 2.5 μL of the reaction substrate diluted in the enzyme reaction buffer was added to each well, the final concentration of which was 10 μM in 10 μL reaction system. After the mixture was reacted at room temperature for 120 minutes, 10 μL of detection reagent was added to each well. The reaction solution was incubated for 20 minutes at room temperature, and the plate was read with Synergy Neo 2 for detection. The value was converted into inhibition rate by the following formula: Inhibition rate=(Signalpositive−Signaltest)/(Signalpositive−Signalnegative)×100%
Signalpositive was positive control without test compound. Signalnegative was negative control without test compound and SSAO enzyme, and Signaltest was detection value of each compound at different concentrations. IC50 value was calculated by using 4 parameter curve fitting.

NC/C(=C\F)COc1cnc(N2CC3(COC3)C2)nc1 [Example 11]
IC50 [1]: 2 to 100 µM
IC50 [2]: > 20 µM
IC50 [3]: > 0.05 µM

Reference: patent US12258336B2, “Preparation of seimicarbazide-sensitive amine oxidase inhibitor and use thereof” (SHANGHAI ENNOVABIO PHARMACEUTICALS CO., LTD., priority 2018, dated 2025)
